Laboratory results: patent US20230203029A1 (priority 2020, published 2023)
pIC50: −log10 of the molar value.

How the values were obtained:
[1] = target: T1, Ba/F3 Pro B-cell line expressing TEL-human Tyro3 fusion domain (Homo sapiens, UniProt Q06418); type: cell-based; conditions: cell survival, 48 h, CellTiter-Glo
T1 sequence (Q06418 518-790 limits assumed): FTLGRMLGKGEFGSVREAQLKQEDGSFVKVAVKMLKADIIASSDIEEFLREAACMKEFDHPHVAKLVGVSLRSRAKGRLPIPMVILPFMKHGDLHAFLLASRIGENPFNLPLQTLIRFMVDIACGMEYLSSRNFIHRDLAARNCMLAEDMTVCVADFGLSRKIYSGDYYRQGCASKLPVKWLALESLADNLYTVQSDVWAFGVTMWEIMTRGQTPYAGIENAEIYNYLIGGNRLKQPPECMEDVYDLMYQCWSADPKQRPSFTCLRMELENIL

[2] = system: BCR-Ba/F3 control cell line; assay: Assay 5 Ba/F3 cell survival assay, BCR-none control line; type: cell-based; conditions: Mus musculus, BaF3
Description: Assay 5—Ba/F3 Cell Survival Assays.
The inhibitory potencies of compounds were assessed in a Ba/F3 cell survival assay, using the Ba/F3 Pro B-cell line, recombinantly expressing a BCR-human AXL kinase domain fusion protein (pACD320/AXL, Advanced Cellular Dynamics Inc), TEL-human MERTK fusion domain (pACD1000/MERTK, Advanced Cellular Dynamics Inc), TEL-human Tyro3 fusion domain (pACD1000/TYRO3, Advanced Cellular Dynamics Inc), or control TEL-none (ACD320, Advanced Cellular Dynamics Inc) BRC-none constructs (ACD1000, Advanced Cellular Dynamics Inc). 10 ng/mL recombinant murine IL3 (R&D, 403-ML-010) was included in the media when propagating negative control TEL-none or BCR-none lines only. Cells were maintained in RMPI 1640 (Corning 15-040-CV) culture media containing 10% heat inactivated semi-synthetic FBS (RMBIO FGR-BBT), 2 mM L-Glutamine (Sigma, G7513), 100 IU/mL Penicillin-[…] Streptomycin (Sigma, P4333), and 500 ng/mL Puromycin (Sigma, P8833). Experiments were performed in 50 μl growth media, including the test compounds of interest, and dispensing 5000 cells/well in logarithmic-phase growth into a 384 well white Optiplate (Perkin Elmer 6007299). […] The final assay DMSO concentration was 0.25%. […]
The plate was then equilibrated for 5 min at room temperature and luminescence read on a BMG Pherastar FSX using the LUM plus optic module. […]

Compound: CN1CCC(NC(=O)c2cc3c(Nc4ccc(NC(=O)c5cccn(-c6ccccc6)c5=O)cc4)ccnc3cn2)CC1 [Example 3, N-(1-methyl-4-piperidyl)-4-[4-[(2-oxo-1-phenyl-pyridine-3-carbonyl)amino]anilino]-1,7-naphthyridine-6-carboxamide]
- pIC50 [1]: 6.02

Compound: O=C(Nc1ccc(Oc2ccnc3cnc(N4CCNCC4)cc23)cc1)c1cccn(-c2ccc(F)cc2)c1=O [Example 12.2, 1-(4-fluorophenyl)-2-oxo-N-[4-[(6-piperazin-1-yl-1,7-naphthyridin-4-yl)oxy]phenyl]pyridine-3-carboxamide]
- pIC50 [1]: 6.62

Compound: CC(C)n1cc(C(=O)Nc2ccc(Oc3ccnc4cnc(N5CCNCC5)cc34)cc2)c(=O)n(-c2ccccn2)c1=O [Example 12.3, 1-isopropyl-2,4-dioxo-N-[4-[(6-piperazin-1-yl-1,7-naphthyridin-4-yl)oxy]phenyl]-3-(2-pyridyl)pyrimidine-5-carboxamide]
- pIC50 [1]: 5.88

Compound: CC(C)n1cc(C(=O)Nc2ccc(Oc3ccnc4cnc(N5CCNCC5)cc34)cc2)c(=O)n(-c2ccc(F)cn2)c1=O [Example 12.4, 3-(5-fluoro-2-pyridyl)-1-isopropyl-2,4-dioxo-N-[4-[(6-piperazin-1-yl-1,7-naphthyridin-4-yl)oxy]phenyl]pyrimidine-5-carboxamide]
- pIC50 [1]: 6.50

Compound: CC(C)n1cc(C(=O)Nc2ccc(Oc3ccnc4cnc(N5CCNCC5)cc34)cc2)c(=O)c(-c2ccc(F)cc2)c1 [Example 13, 5-(4-Fluorophenyl)-1-isopropyl-4-oxo-N-[4-[(6-piperazin-1-yl-1,7-naphthyridin-4-yl)oxy]phenyl]pyridine-3-carboxamide]
- pIC50 [1]: 6.67

Compound: Cn1cc(C(=O)Nc2ccc(Oc3ccnc4cnc(N5CCNCC5)cc34)cc2)c(=O)c(-c2ccc(F)cc2)c1 [Example 13.1, 5-(4-fluorophenyl)-1-methyl-4-oxo-N-[4-[(6-piperazin-1-yl-1,7-naphthyridin-4-yl)oxy]phenyl]pyridine-3-carboxamide]
- pIC50 [1]: 6.75

Compound: C[C@H](CO)n1cc(C(=O)Nc2ccc(Oc3ccnc4cnc(C(=O)NC5CCN(C)CC5)cc34)cc2)c(=O)n(-c2ccc(F)cc2)c1=O [Example 14, 4-[4-[[3-(4-Fluorophenyl)-2,4-dioxo-1-[(1R)-2-hydroxy-1-methyl-ethyl]pyrimidine-5-carbonyl]amino]phenoxy]-N-(1-methyl-4-piperidyl)-1,7-naphthyridine-6-carboxamide]
- pIC50 [1]: 6.23

Compound: CN1CCC(NC(=O)c2cc3c(Oc4ccc(NC(=O)c5cn(C6CC6)c(=O)n(-c6ccc(F)cc6)c5=O)cc4)ccnc3cn2)CC1 [Example 15, 4-[4-[[1-Cyclopropyl-3-(4-fluorophenyl)-2,4-dioxo-pyrimidine-5-carbonyl]amino]phenoxy]-N-(1-methyl-4-piperidyl)-1,7-naphthyridine-6-carboxamide]
- pIC50 [1]: 6.17

Compound: O=C(Nc1ccc(Oc2ccnc3cnc(N4CCN(C5COC5)CC4)cc23)cn1)c1ccnn(-c2ccc(F)cc2)c1=O [Example 20, 2-(4-fluorophenyl)-N-[5-[[6-[4-(oxetan-3-yl)piperazin-1-yl]-1,7-naphthyridin-4-yl]oxy]-2-pyridyl]-3-oxo-pyridazine-4-carboxamide]
- pIC50 [1]: 6.57
- pIC50 [2]: 6.08

Compound: CC(C)n1cc(C(=O)Nc2ccc(Oc3ccnc4cnc(C(=O)NC5CCN(C)CC5)cc34)cn2)c(=O)n(-c2ccc(F)cc2)c1=O [Example 27.5, 4-[[6-[[3-(4-fluorophenyl)-1-isopropyl-2,4-dioxo-pyrimidine-5-carbonyl]amino]-3-pyridyl]oxy]-N-(1-methyl-4-piperidyl)-1,7-naphthyridine-6-carboxamide]
- pIC50 [1]: 6.97

Compound: Cc1cc(NC(=O)c2cccn(-c3ccccc3)c2=O)ccc1Oc1ccnc2cnc(N3CCNCC3)cc12 [Example 30, N-[3-methyl-4-[(6-piperazin-1-yl-1,7-naphthyridin-4-yl)oxy]phenyl]-2-oxo-1-phenyl-pyridine-3-carboxamide]
- pIC50 [1]: 5.88

Compound: CN1CCC(NC(=O)c2cc3c(Oc4ccc(NC(=O)c5cccn(-c6ccccc6)c5=O)cc4F)ccnc3cn2)CC1 [Example 33, 4-[2-fluoro-4-[(2-oxo-1-phenyl-pyridine-3-carbonyl)amino]phenoxy]-N-(1-methyl-4-piperidyl)-1,7-naphthyridine-6-carboxamide]
- pIC50 [1]: 6.81

Compound: O=C(Nc1ccc(Oc2ccnc3cnc(N4CCNCC4)cc23)cc1)c1cn(C2CC2)c(=O)n(-c2ccc(F)cc2)c1=O [Example 36, 1-cyclopropyl-3-(4-fluorophenyl)-2,4-dioxo-N-[4-[(6-piperazin-1-yl-1,7-naphthyridin-4-yl)oxy]phenyl]pyrimidine-5-carboxamide]
- pIC50 [1]: 6.06

Compound: CN1CCC(NC(=O)c2cc3c(Oc4ccc(NC(=O)c5cn(C)cc(-c6ccc(F)cc6)c5=O)cc4)ccnc3cn2)CC1 [Example 37, 4-[4-[[5-(4-fluorophenyl)-1-methyl-4-oxo-pyridine-3-carbonyl]amino]phenoxy]-N-(1-methyl-4-piperidyl)-1,7-naphthyridine-6-carboxamide]
- pIC50 [1]: 6.60

Compound: CC(C)n1cc(C(=O)Nc2ccc(Oc3ccnc4cnc(C(=O)NC5CCN(C)CC5)cc34)cc2)c(=O)c(-c2ccc(F)cc2)c1 [Example 37.1, 4-[4-[[5-(4-fluorophenyl)-1-isopropyl-4-oxo-pyridine-3-carbonyl]amino]phenoxy]-N-(1-methyl-4-piperidyl)-1,7-naphthyridine-6-carboxamide]
- pIC50 [1]: 7.37
